The values below come from ChEMBL document CHEMBL4359843, “Linear and Rationally Designed Stapled Peptides Abrogate TLR4 Pathway and Relieve Inflammatory Symptoms in Rheumatoid Arthritis Rat Model” (J Med Chem, 2019).

For test [1], the target named is T1, Toll-like receptor 4 (Homo sapiens, UniProt O00206). Put plainly: Antagonist activity at TLR4 in human THP1 cells assessed as reduction in LPS-induced ERK phosphorylation at 50 uM after 15 to 30 mins by Western blot analysis. The test is classed as cell-based. On the technique in general: A western blot detects proteins with antibodies after separation by electrophoresis.

In test [2] the test system is Rattus norvegicus. Put plainly: Antiarthritic activity in Lewis rat model of complete Freund's adjuvant-induced arthritis assessed as increase in osteocytes within lacunae at 1 nmol/g administered intra-articularly into knee joint after 4 to 6 week by H and E staining based histopathological analysis. The test is classed as functional, organism-based.
Test [3] has as its system Rattus norvegicus. The test can be described thus: Antiarthritic activity in Lewis rat model of complete Freund's adjuvant-induced arthritis assessed as appearance of rounded mature chondrocytes surrounded by GAG deposition at 1 nmol/g administered intra-articularly into knee joint and measured on third week by Safranin-O staining based histopathological analysis. The test is classed as functional, organism-based.

The target of test [4] is T2, Toll-like receptor 4 (Mus musculus) (UniProt Q9QUK6).
T2 sequence (whole entry): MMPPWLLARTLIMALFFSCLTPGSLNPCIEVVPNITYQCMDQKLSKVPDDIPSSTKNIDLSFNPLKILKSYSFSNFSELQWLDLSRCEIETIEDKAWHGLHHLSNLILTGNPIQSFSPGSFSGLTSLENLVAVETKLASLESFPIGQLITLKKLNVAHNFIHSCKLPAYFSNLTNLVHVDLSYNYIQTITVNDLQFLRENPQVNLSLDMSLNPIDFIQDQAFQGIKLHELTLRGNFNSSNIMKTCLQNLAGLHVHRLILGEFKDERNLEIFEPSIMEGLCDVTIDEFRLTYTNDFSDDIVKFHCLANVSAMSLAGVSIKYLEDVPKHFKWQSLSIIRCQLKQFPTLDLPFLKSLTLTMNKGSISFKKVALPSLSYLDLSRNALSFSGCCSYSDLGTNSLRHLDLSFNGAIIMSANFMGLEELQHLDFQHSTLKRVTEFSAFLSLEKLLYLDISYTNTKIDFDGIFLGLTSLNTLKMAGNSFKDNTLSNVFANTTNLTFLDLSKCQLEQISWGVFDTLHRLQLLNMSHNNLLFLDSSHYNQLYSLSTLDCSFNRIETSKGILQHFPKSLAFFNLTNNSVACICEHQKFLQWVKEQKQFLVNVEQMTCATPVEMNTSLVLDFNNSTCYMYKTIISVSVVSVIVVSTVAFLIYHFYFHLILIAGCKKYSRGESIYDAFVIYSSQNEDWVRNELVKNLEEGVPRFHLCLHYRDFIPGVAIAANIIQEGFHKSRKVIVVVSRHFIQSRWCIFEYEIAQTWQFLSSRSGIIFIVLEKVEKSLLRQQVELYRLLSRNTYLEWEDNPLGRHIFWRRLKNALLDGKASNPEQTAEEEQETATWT
Put plainly: Antagonist activity at TLR4 in mouse RAW264.7 cells assessed as reduction in LPS-induced cytosolic NO level at 50 uM by DAF-FM staining based FACS analysis. The test is classed as cell-based.

Test [5] concerns Rattus norvegicus. Put plainly: Antiarthritic activity in Lewis rat model of complete Freund's adjuvant-induced arthritis assessed as regeneration of glycosaminoglycans at the border between bone and cartilage at 1 nmol/g administered intra-articularly into knee joint measured on third week by Safranin-O staining based histopathological analysis. The test is classed as functional, organism-based.

Test [6] deals with T2, Toll-like receptor 4 (Mus musculus). Put plainly: Antagonist activity at TLR4 in mouse RAW264.7 cells assessed as reduction in LPS-induced IFNalpha secretion at 5 to 50 uM after 24 hrs by ELISA. The test is classed as cell-based. For orientation: ELISA stands for enzyme-linked immunosorbent assay.
The target in test [7] is T1, Toll-like receptor 4. The test can be described thus: Antagonist activity at TLR4 in human THP1 cells assessed as reduction in LPS-induced JNK phosphorylation at 50 uM after 15 to 30 mins by Western blot analysis. The test is classed as cell-based.
Test [8] addresses T2, Toll-like receptor 4 (Mus musculus). The test can be described thus: Antagonist activity at TLR4 in mouse RAW264.7 cells assessed as reduction in LPS-induced cytosolic ROS level at 50 uM by DCF-DA staining based FACS analysis. The test is classed as cell-based. (In general: A flow cytometer gives signals particle by particle.)
The test system of test [9] is Rattus norvegicus. The test can be described thus: Antiarthritic activity in Lewis rat model of complete Freund's adjuvant-induced arthritis assessed as reduction in inflammation synovial tissues at 1 nmol/g administered intra-articularly into knee joint after 6 week by Safranin-O staining based histopathological analysis. The test is classed as functional, organism-based.

Test [10] has as its system Rattus norvegicus. Put plainly: Antiarthritic activity in Lewis rat model of complete Freund's adjuvant-induced arthritis assessed as regain of normal feet physiology at 1 nmol/g administered intra-articularly into knee joint after 5 to 6 weeks by visual analysis. The test is classed as functional, organism-based.
In test [11] the target is T1, Toll-like receptor 4. Put plainly: Antagonist activity at TLR4 in human THP1 cells assessed as reduction in LPS-induced IRF3 phosphorylation at 50 uM after 120 to 240 mins by Western blot analysis. The test is classed as cell-based.
The target of test [12] is T1, Toll-like receptor 4. The test can be described thus: Antagonist activity at TLR4 in human THP1 cells assessed as reduction in LPS-induced IL6 secretion at 50 uM after 24 hrs by ELISA. The test is classed as cell-based.
Test [13] has as its target Toll-like receptor 1/2 (Mus musculus) (UniProt Q9QUN7+Q9EPQ1). Put plainly: Antagonist activity at TLR2/1 in mouse RAW264.7 cells assessed as reduction in PAM3CSK4-induced TNFalpha secretion at 20 to 80 uM after 24 hrs by ELISA. The test is classed as cell-based.
Test [14] deals with T1, Toll-like receptor 4. Put plainly: Antagonist activity at TLR4 in human PBMC cells assessed as reduction in LPS-induced NFkappaB p65 phosphorylation at 80 uM after 15 to 30 mins by Western blot analysis. The test is classed as cell-based.
The subject of test [15] is RAW264.7. The test can be described thus: Antagonist activity at TLR7/8 in mouse RAW264.7 cells assessed as reduction in R848-induced TNFalpha secretion at 20 to 80 uM after 24 hrs by ELISA. The test is classed as cell-based.
Test [16] concerns the target T2, Toll-like receptor 4 (Mus musculus). Put plainly: Binding affinity to TLR4 in mouse RAW264.7 cells assessed as colocalization of TLR4 in plasma membrane at 40 uM preincubated for 1 hr followed by LPS challenge and measured after 30 mins using FITC-labelled compound by Alexafluor-488/Hoechst 33258 staining based immunofluorescence confocal microscopic method. The test is classed as cell-based.

Test [17] has as its system Mus musculus. The test can be described thus: Antiinflammatory activity in C57BL/6J mouse assessed as reduction in LPS-induced IL-12p40 secretion at 70 nmol/g, ip pretreated for 1 hr followed by LPS challenge and measured after 2 hrs by ELISA. The test is classed as functional, organism-based.
The target of test [18] is T2, Toll-like receptor 4 (Mus musculus). The test can be described thus: Antagonist activity at TLR4 in mouse RAW264.7 cells assessed as reduction in LPS-induced ATF3 activation at 80 uM after 120 to 240 mins by Western blot analysis. The test is classed as cell-based.
Test [19] has the same target. Put plainly: Antagonist activity at TLR4 in mouse RAW264.7 cells assessed as reduction in LPS-induced cytosolic ROS level at 80 uM by DCF-DA staining based FACS analysis. The test is classed as cell-based.
Test [20] shares this target. The test can be described thus: Antagonist activity at TLR4 in mouse RAW264.7 cells assessed as reduction in LPS-induced COX2 expression at 80 uM by Western blot analysis. The test is classed as cell-based.
Test [21] addresses T1, Toll-like receptor 4. Put plainly: Antagonist activity at TLR4 in human PBMC cells assessed as reduction in LPS-induced ERK phosphorylation at 80 uM after 15 to 30 mins by Western blot analysis. The test is classed as cell-based.
In test [22] the target is TLR2/TLR6 (Mus musculus) (UniProt Q9QUN7+Q9EPW9). The test can be described thus: Antagonist activity at TLR2/6 in mouse RAW264.7 cells assessed as reduction in FSL-1-induced TNFalpha secretion at 20 to 80 uM after 24 hrs by ELISA. The test is classed as cell-based.

The source made the active and inactive calls. The calls are words filed in the database; no cut-off is given here. Where a SMILES comes first, the peptide text is derived from it. Bridges are numbered along the chain shown (N, C = ends).

T1 sequence (O00206 whole entry): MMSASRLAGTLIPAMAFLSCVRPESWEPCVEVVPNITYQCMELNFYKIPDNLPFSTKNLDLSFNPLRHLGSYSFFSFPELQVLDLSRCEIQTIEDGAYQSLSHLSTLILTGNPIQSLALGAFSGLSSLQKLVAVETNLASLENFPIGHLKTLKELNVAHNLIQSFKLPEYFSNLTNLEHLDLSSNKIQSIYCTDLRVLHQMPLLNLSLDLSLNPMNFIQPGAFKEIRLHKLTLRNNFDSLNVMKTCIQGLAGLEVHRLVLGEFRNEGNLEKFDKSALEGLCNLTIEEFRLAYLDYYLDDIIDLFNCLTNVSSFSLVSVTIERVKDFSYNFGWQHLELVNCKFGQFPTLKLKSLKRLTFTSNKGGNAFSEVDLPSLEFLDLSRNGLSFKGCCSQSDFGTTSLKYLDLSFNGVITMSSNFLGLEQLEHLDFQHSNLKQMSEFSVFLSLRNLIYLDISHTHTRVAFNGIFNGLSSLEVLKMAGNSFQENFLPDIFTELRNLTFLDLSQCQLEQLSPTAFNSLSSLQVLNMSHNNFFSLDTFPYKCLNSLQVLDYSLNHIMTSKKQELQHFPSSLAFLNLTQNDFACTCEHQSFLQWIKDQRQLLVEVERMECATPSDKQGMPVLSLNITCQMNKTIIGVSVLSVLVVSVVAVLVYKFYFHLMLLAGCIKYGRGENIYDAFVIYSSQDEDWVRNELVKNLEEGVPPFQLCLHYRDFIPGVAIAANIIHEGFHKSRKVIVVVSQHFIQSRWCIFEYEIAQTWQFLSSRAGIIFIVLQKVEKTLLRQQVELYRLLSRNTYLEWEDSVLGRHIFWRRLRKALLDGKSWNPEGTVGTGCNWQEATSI

In the case of `CC[C@H](C)[C@@H]1NC(=O)[C@H](Cc2c[nH]c3ccccc23)NC(=O)[C@H](Cc2c[nH]c3ccccc23)NC(=O)[C@@H](NC(=O)[C@H](CO)NC(=O)[C@H](Cc2ccccc2)NC(=O)[C@@H](NC(=O)CNC(=O)[C@@H](N)CC(C)C)C(C)C)CC(=O)NCCCC[C@@H](C(=O)N[C@@H](CC(C)C)C(=O)N[C@H](C(=O)O)C(C)C)NC1=O` (H-LGVFSDWWIKLV-OH; lactam 6-10), the result in test [1], in test [2], in test [3], in test [4], in test [5] and in test [6] was Active. Also, the result in test [7], in test [8], in test [9], in test [10], in [11] and in test [12] was Active.
Consider H-LGVFSSWWIKLV-OH, for which the outcome in test [13], in test [15] and in test [22] was inactive. Further, the outcome in test [14], in test [16], in test [17], in test [18], in test [19] and in [20] was Active. Moreover, the outcome in test [21] was Active.
